Results published in PMC6938330, “Crystal structures of p120RasGAP N-terminal SH2 domain in its apo form and in complex with a p190RhoGAP phosphotyrosine peptide” (PLoS ONE, 2019).
Values joined by “and” are separate entries in the source; they are usually repeats but may differ in a detail not shown here. Equal values may be shown once. Values belong to the molecule of their own block, whether it stands above or below them. Where a SMILES comes first, the peptide text is derived from it. [ ]: non-standard residue; d: D form. pY = N[C@@H](Cc1ccc(OP(=O)(O)O)cc1)C(=O)O

Columns and labels:
[1] = system: R207A mutant p120RasGAP N-SH2; test: Native PAGE gel shift, R207A mutant N-SH2; format: binding, human; settings: protein 0.08 mM, peptide 0.02 to 0.15 mM (peptide:protein 0.25 to 1.9); on ice 10 min; 50 mM Tris pH 7.4; 4–20% gel, pH 8.3, 200 V 1 h; Coomassie
Protocol: (§1) A mutant form, with R207A mutation, was introduced by QuikChange mutagenesis (Agilent) using forward and reverse primers (5'-[…]-3', 5'- […]-3’). Expression and purification were by identical methods as wild type protein. Yield for the mutant was 4 mg/L culture. Both wild type and mutant constructs elute from size exclusion chromatography as monodisperse peaks.
(§2) A synthetic 13 amino acid peptide of sequence EEENI(p-Tyr)SVPHDST native to p190RhoGAP residues 1100 to 1112 phosphorylated at Tyr-1105, with N-terminal acetylation and C-terminal amidation, was commercially synthesized (GenScript) and re-suspended in sterile-filtered water.
A serial dilution series of pTyr-1105 phosphopeptide was performed in dilution buffer (50 mM Tris pH 7.4), and mixed with wild-type or R207A mutant N-terminal SH2 domain protein for a final protein concentration of 0.08 mM and a phosphopeptide concentration ranging from 0.02 mM to 0.15 mM (peptide:protein ratio ranging from 0.25 to 1.9). The protein-peptide mixtures, or protein alone as negative control, were incubated on ice for 10 minutes and then centrifuged for 1 minute at 4 °C. 10 μL of 2X native protein sample buffer (62.5 mM Tris HCL pH 6.8, 40% glycerol, 0.01% bromophenol blue) was then added to all samples. […]

[2] = system: wild-type p120RasGAP N-SH2; test: Native PAGE gel shift, wild-type N-SH2; format: binding, human; settings: saturating peptide concentrations; protein 0.08 mM, peptide 0.02 to 0.15 mM (peptide:protein 0.25 to 1.9); on ice 10 min; 50 mM Tris pH 7.4; 4–20% gel, pH 8.3, 200 V 1 h; Coomassie
Protocol: cDNA of residues 174 through 280 of human p120RasGAP (UniProt ID: P20936) encoding the N-terminal SH2 domain tagged was subcloned into a modified pET28a vector with an N-terminal hexahistidine tag and TEV protease recognition sequence. Two native cysteines, C236 and C261, were mutated to serine to prevent disulfide bridge formation. Following transformation into Rosetta(DE3) cells, a 1L culture was induced overnight at OD600 of 0.6–0.8 and 18°C using 0.2 mM IPTG. Cells were harvested by centrifugation and resuspended in lysis buffer (50 mM HEPES pH 7.3, 500 mM NaCl). Lysis was facilitated by lysozyme addition and three freeze/thaw cycles, prior to sonication and DNAse I addition. Clarified lysate was prepared by centrifugation at 5000 x g at 4°C and incubated with nickel beads (Ni-NTA Agarose, Qiagen) for 1 hr at 4°C to capture hexahistidine-tagged protein. Following washing with 3 column volumes of wash buffer (50 mM HEPES pH 7.3, 500 mM NaCl, 20mM imidazole), TEV protease was added overnight at 4 °C to cleave the SH2 domain protein from the hexahistidine-tag. The next day, flow through containing tag-free SH2 domain protein was collected and the beads were washed with several column volumes of wash buffer to fully remove the cleaved protein from the beads. […]

[3] = molecular target: T1, N-terminal SH2 domain of p120RasGAP (Homo sapiens, UniProt P20936, C236S/C261S); test: Isothermal titration calorimetry (ITC), wild-type N-SH2; settings: 20mM Tris 7.4, 150mM NaCl, independent binding model
T1 construct: cDNA of residues 174 through 280 of human p120RasGAP (UniProt ID: P20936); made in house; host or cells: E. coli Rosetta(DE3)
T1 sequence (P20936 174-280 C236S/C261S): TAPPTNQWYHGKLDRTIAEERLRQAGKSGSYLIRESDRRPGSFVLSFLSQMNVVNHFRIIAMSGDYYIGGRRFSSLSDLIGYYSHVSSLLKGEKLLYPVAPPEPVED
Protocol: cDNA of residues 174 through 280 of human p120RasGAP (UniProt ID: P20936) encoding the N-terminal SH2 domain tagged was subcloned into a modified pET28a vector with an N-terminal hexahistidine tag and TEV protease recognition sequence. Two native cysteines, C236 and C261, were mutated to serine to prevent disulfide bridge formation. Following transformation into Rosetta(DE3) cells, a 1L culture was induced overnight at OD600 of 0.6–0.8 and 18°C using 0.2 mM IPTG. Cells were harvested by centrifugation and resuspended in lysis buffer (50 mM HEPES pH 7.3, 500 mM NaCl). Lysis was facilitated by lysozyme addition and three freeze/thaw cycles, prior to sonication and DNAse I addition. Clarified lysate was prepared by centrifugation at 5000 x g at 4°C and incubated with nickel beads (Ni-NTA Agarose, Qiagen) for 1 hr at 4°C to capture hexahistidine-tagged protein. Following washing with 3 column volumes of wash buffer (50 mM HEPES pH 7.3, 500 mM NaCl, 20mM imidazole), TEV protease was added overnight at 4 °C to cleave the SH2 domain protein from the hexahistidine-tag. The next day, flow through containing tag-free SH2 domain protein was collected and the beads were washed with several column volumes of wash buffer to fully remove the cleaved protein from the beads. Size exclusion chromatography (Superdex 75, GE Healthcare) was performed on p120RasGAP N-SH2 in 20 mM Tris pH 7.4 and 150 mM NaCl. Yield was 20 mg/L culture. Protein was concentrated by centrifugal filter (Amicon Ultra, Millipore Sigma).
as §2
(§3) The N-SH2 protein and pTyr1105 peptide were prepared for ITC by overnight dialysis in a common buffer with a 20mM Tris 7.4, 150mM NaCl composition. Slide-A-Lyzer Dialysis Cassettes with a molecular weight cut-off of 3,500 Da were used for protein dialysis and Micro Float-A-Lyzer Dialysis devices with a 100–500 Da cut-off for peptide dialysis. Samples were retrieved from their cartridges, spun down for 10 minutes at 4°C. Concentrations were measured using a Nanodrop spectrophotometer at 280 nm. To determine peptide concentration, a phosphotyrosine extinction coefficient of 458.6 M^-1cm^-1 at pH 7.4 was used. Two ITC experiments were performed using a Nano-ITC (TA Instruments). Both protein and peptide were degassed for 3 minutes prior to loading. 350 μL of protein were injected into the sample cell. The injection burette was loaded with 52 μL of peptide. 20 injections of 2.5 μL of peptide, each spanning 300 seconds, were performed per ITC run. Results were analyzed using the nano-ITC software, through fitting to an independent binding model.
We conducted isothermal titration calorimetry to assess the interaction between the N-terminal SH2 domain of p120RasGAP and the p190RhoGAP pTyr-1105 peptide. We injected the p190RhoGAP pTyr-1105 peptide at a concentration of 78.5 μM into N-SH2 at a concentration of 15 μM. Averaged over two independent experiments we observe a Kd of 0.3 ± 0.1 μM (Fig 5A).

[4] = system: R207A mutated N-SH2 (p120RasGAP); test: Isothermal titration calorimetry (ITC), R207A mutant N-SH2; format: binding, human
Protocol: as §1, §2
as §3, with “Two ITC experiments were performed using a Nano-ITC (TA Instruments). Both protein and peptide were degassed for 3 minutes prior to loading. 350 μL of protein were injected into the sample cell. The injection burette was loaded with 52 μL of peptide. 20 injections of 2.5 μL of peptide, each spanning 300 seconds, were performed per ITC run.” left out, “model. […]” for “model.”

[5] = molecular target: p190RhoGAP pTyr-1105 peptide pTyr-1105 peptide (Homo sapiens, UniProt Q9NRY4, pTyr1105); test: ITC
[6] = molecular target: T2, p120RasGAP N-terminal SH2 domain (residues 174-280, C236S, C261S) (human, UniProt P20936 174-280, C236S | C261S); test: ITC; peptide in the burette injected into N-SH2 in the cell (78.5 μM into 15 μM wild type; 120 μM into 15 μM R207A); 20 mM Tris 7.4, 150 mM NaCl; Nano-ITC, 20 injections of 2.5 μL; independent binding model; two runs; settings: both partners purified
T2 construct: human p120RasGAP (RASA1), residues 174 through 280, the N-terminal SH2 domain; two native cysteines mutated to serine; The His6 tag was removed with TEV protease; also called p120RasGAP N-SH2; N-SH2; source: E. coli Rosetta(DE3), purified (Ni-NTA, TEV cleavage, Superdex 75 SEC); not shown: His6, N-terminal, cleaved
T2 sequence (looked up): T1 sequence (P20936 174-280 C236S/C261S)

- Kd ([3]; averaged over two independent ITC experiments, peptide at 78.5 μM injected into N-SH2 (residues 174-280, C236S/C261S) at 15 μM, 20 injections of 2.5 μL, 300 s each, read-out: Kd (dissociation constant)): 300 ± 100 nM
- TΔS ([3]; run 1 of two): -8.9 kcal/mol
- ΔG ([3]; run 1 of two): -8.7 kcal/mol
- ΔH ([3]; run 1 of two): -17.6 kcal/mol
- TΔS ([3]; run 2 of two): -4.9 kcal/mol
- ΔG ([3]; run 2 of two): -9.0 kcal/mol
- ΔH ([3]; run 2 of two): -13.9 kcal/mol
- heat of binding ([4]; peptide at 120 μM injected into R207A mutated N-SH2 at 15 μM, 20mM Tris 7.4, 150mM NaCl): do not observe measurable heat
Molecule: CC[C@H](C)[C@H](NC(=O)[C@H](CC(N)=O)NC(=O)[C@H](CCC(=O)O)NC(=O)[C@H](CCC(=O)O)NC(=O)[C@H](CCC(=O)O)NC(C)=O)C(=O)N[C@@H](Cc1ccc(OP(=O)(O)O)cc1)C(=O)N[C@@H](CO)C(=O)N[C@H](C(=O)N1CCC[C@H]1C(=O)N[C@@H](Cc1c[nH]cn1)C(=O)N[C@@H](CC(=O)O)C(=O)N[C@@H](CO)C(=O)N[C@H](C(N)=O)[C@@H](C)O)C(C)C [p190RhoGAP pTyr-1105 peptide] (Ac-EEENI[pY]SVPHDST-NH2)
- mobility shift in native gel [1]: fails to shift
- mobility shift in native gel [2]: significant increase in its mobility in the gel
- interaction upon mutation of the FLVR motif arginine residue ([4]; R207A mutant, summarising statement of the Conclusions (ITC and native PAGE)): abolishes interaction

- Kd [5]: 300 nM
B1: p120RasGAP N-terminal SH2 (protein)
chain: WYHGKLDRTIAEERLRQAGKSGSYLIRESDRRPGSFVLSFLSQMNVVNHFRIIAMCGDYYIGGRRFSSLSDLIGYYSHVSCLLKGEKLLYPV

- Kd [6]: 240 nM and 430 nM
- dH [6]: -17.6 kcal/mol and -13.9 kcal/mol
- stoichiometry N [6]: 0.724 and 0.63
B2: p190RhoGAP pTyr-1105 phosphopeptide EEENI(p-Tyr)SVPHDST (residues 1100-1112) (peptide)
peptide: Ac-EEENI[pY]SVPHDST-NH2
SMILES: CC[C@H](C)[C@H](NC(=O)[C@H](CC(N)=O)NC(=O)[C@H](CCC(=O)O)NC(=O)[C@H](CCC(=O)O)NC(=O)[C@H](CCC(=O)O)NC(C)=O)C(=O)N[C@@H](Cc1ccc(OP(=O)(O)O)cc1)C(=O)N[C@@H](CO)C(=O)N[C@H](C(=O)N1CCC[C@H]1C(=O)N[C@@H](Cc1c[nH]cn1)C(=O)N[C@@H](CC(=O)O)C(=O)N[C@@H](CO)C(=O)N[C@H](C(N)=O)[C@@H](C)O)C(C)C
notes: The sixth residue (Y) is phosphotyrosine; also called pTyr1105 peptide; source: synthetic peptide (GenScript)
